Measurements reported in patent US20100240580A1, “AZOLOARINE DERIVATIVES, METHOD FOR THE PRODUCTION THEREOF, PHARMACEUTICALS CONTAINING THESE COMPOUNDS AND THE USE THEREOF” (SANOFI-AVENTIS, priority 2007, published 2010).

Target: T1, SCD1 (Rattus norvegicus, UniProt P07308)
T1 construct: The resuspended microsome fraction was stored at −80° C; from tissue; host or cells: liver microsomes of male Wistar rats fed a carbohydrate-rich, low-fat diet
T1 sequence (P07308 1-358): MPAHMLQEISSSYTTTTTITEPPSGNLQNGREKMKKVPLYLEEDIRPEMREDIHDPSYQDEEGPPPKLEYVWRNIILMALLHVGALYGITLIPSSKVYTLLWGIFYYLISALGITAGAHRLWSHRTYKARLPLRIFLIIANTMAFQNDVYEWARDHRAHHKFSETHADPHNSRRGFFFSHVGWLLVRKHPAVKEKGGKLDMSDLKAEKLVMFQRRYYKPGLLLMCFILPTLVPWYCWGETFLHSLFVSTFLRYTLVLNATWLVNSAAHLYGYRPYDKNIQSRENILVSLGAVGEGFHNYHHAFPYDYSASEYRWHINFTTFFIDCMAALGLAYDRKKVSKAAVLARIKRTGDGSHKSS
Experiment: stearoyl-CoA desaturase (SCD1) activity, thin-layer chromatography assay with rat liver microsomes
Assay type: biochemical
Conditions: compound at 10 μM, [1-14C]-stearic acid, 37° C., 1 h
Description: The activity of the compounds of the invention of the formula I was investigated in the following assay system with microsomal enzymes:
The livers of male Wistar rats which (to induce SCD1 expression) have been fed with a carbohydrate-rich, low-fat diet were homogenized with a Potter tissue homogenizer and differential centrifugation in a buffer which contained 250 mM sucrose and 5 mM HEPES (pH 7.0). The resuspended microsome fraction was stored at −80° C. The stearoyl-CoA desaturase activity was determined in a thin-layer chromatography assay with […] stearic acid. Stated briefly, the respective compounds of the invention (in DMSO in a final concentration of 1% [v/v]) were incubated with 15 μg of the rat liver microsomes in 200 μl of assay buffer (6 mM MgCl2, 250 mM sucrose, 150 mM KCl, 40 mM NaF, 100 mM Na2HPO4 (pH 7.4), 1.3 mM ATP, 1.5 mM reduced glutathione, 60 μM CoA, 0.33 mM nicotinamide and 0.94 mM NADH) at room temperature for 10 min. 0.5 μCi of [1-^14C]-stearic acid (55 mCi/mmol) was added, and the mixture was incubated at 37° C. for 1 h. The radiolabeled fatty acids were then hydrolyzed with 2.5 M KOH/MeOH:H2O (4:1) at 65° C. for 4 h, protonated with 280 μl of formic acid and extracted with 500 μl of hexane. The TLC plates were immersed in 10% AgNO3 and heat-activated before use. 150 μl of the hexane phase were put on the plates, and the TLC plates were developed in buffer (chloroform:methanol:acetic acid:water [90:8:1:0.8]) and dried. The plates were read in a PhosphoImager to quantify the SCD1 activity.
The skilled person is able to modify this assay to determine the inhibition of stearoyl-CoA desaturase activity in various respects.

Structure (SMILES)	% Inhibition (10 μM)
O=C(NCc1ccc(Cl)s1)c1ccc2nc(-c3ccc(Oc4ccccc4)cc3)[nH]c2c1 [Example 8, 2-(4-Phenoxyphenyl)-3H-benzimidazole-5-(5-chlorothiophen-2-ylmethyl)carboxamide]	37%
O=C(NCc1nccs1)c1ccc2nc(-c3ccc(Oc4ccccc4)cc3)[nH]c2c1 [Example 9, 2-(4-Phenoxyphenyl)-3H-benzimidazole-5-(thiazol-2-ylmethyl)carboxamide]	29%
CC(C)CCNC(=O)c1ccc2nc(-c3ccc(Oc4ccccc4Cl)cc3)[nH]c2c1 [Example 13, 2-[4-(2-Chlorophenoxy)phenyl]-3H-benzoimidazole-5-(3-methylbutyl)carboxamide]	58%
O=C(NCCC1CC1)c1ccc2nc(-c3ccc(Oc4ccccc4Cl)cc3)[nH]c2c1 [Example 14, 2-[4-(2-Chlorophenoxy)phenyl]-3H-benzoimidazole-5-(2-cyclopropylethyl)carboxamide]	80%
O=C(NCc1ccc(Cl)s1)c1ccc2nc(-c3ccc(Oc4ccccc4Cl)cc3)[nH]c2c1 [Example 15, 2-[4-(2-Chlorophenoxy)phenyl]-3H-benzoimidazole-5-(5-chlorothiophen-2-yl-methyl)carboxamide]	95%
O=C(NCc1nccs1)c1ccc2nc(-c3ccc(Oc4ccccc4Cl)cc3)[nH]c2c1 [Example 16, 2-[4-(2-Chlorophenoxy)phenyl]-3H-benzoimidazole-5-(thiazol-2-ylmethyl)carboxamide]	86%
O=C(NCc1cccs1)c1ccc2nc(-c3ccc(C(=O)c4ccccc4C(F)(F)F)cc3)[nH]c2c1 [Example 19, 2-[4-(2-Trifluoromethylbenzoyl)phenyl]-3H-benzimidazole-5-(thiophen-2-ylmethyl)-carboxamide]	100%
CC(C)CNC(=O)c1ccc2nc(-c3ccc(C(=O)c4ccccc4C(F)(F)F)cc3)[nH]c2c1 [Example 20, 2-[4-(2-Trifluoromethylbenzoyl)phenyl]-3H-benzoimidazole-5-isobutylcarboxamide]	77%
O=C(NCCC1CC1)c1ccc2nc(-c3ccc(Oc4ccccc4C(F)(F)F)cc3)[nH]c2c1 [Example 23, 2-[4-(2-Trifluoromethylphenoxy)phenyl]-3H-benzimidazole-5-(2-cyclopropylethyl)-carboxamide]	96%
CC(C)CCNC(=O)c1ccc2nc(-c3ccc(Oc4ccccc4C(F)(F)F)cc3)[nH]c2c1 [Example 24, 2-[4-(2-Trifluoromethylphenoxy)phenyl]-3H-benzimidazole-5-(3-methylbutyl)carboxamide]	77%
O=C(NCc1nccs1)c1ccc2nc(-c3ccc(Oc4ccccc4C(F)(F)F)cc3)[nH]c2c1 [Example 25, 2-[4-(2-Trifluoromethylphenoxy)phenyl]-3H-benzimidazole-5-(thiazol-2-ylmethyl)carboxamide]	100%
O=C(NCc1ccc(Cl)s1)c1ccc2nc(-c3ccc(C(=O)c4ccccc4C(F)(F)F)cc3)[nH]c2c1 [Example 27, 2-[4-(2-Trifluoromethylbenzoyl)phenyl]-3H-benzimidazole-5-(5-chlorothiophen-2-ylmethyl)-carboxamide]	100%
O=C(NCc1nccs1)c1ccc2[nH]c(-c3ccc(C(=O)c4ccccc4C(F)(F)F)cc3)nc2c1 [Example 28, 2-[4-(2-Trifluoromethylbenzoyl)phenyl]-1H-benzimidazole-5-(thiazol-2-ylmethyl)-carboxamide]	100%
